Literature values in patent US20230364199A1, “IMPROVEMENT OF PHYSICAL AND MENTAL WELL-BEING OF PATIENTS WITH HYPOPARATHYROIDISM” (ASCENDIS PHARMA BONE DISEASES A/S, priority 2020, published 2023).

Experiments:
[1] = test system: patients with hypoparathyroidism
[2] = test system: patients with hypoparathyroidism; conditions: 54 patients, after 1 year of treatment, every other day
[3] = test system: adults with chronic hypoparathyroidism; conditions: supplements adjusted to target serum calcium

Row | Molecule | 9-min walk-run test ([1]; seven patients, before and after 3 years of treatment, twice a day) | fatigue and physical endurance described by patients ([1]; several patients, during PTH treatment) | QoL, mental component score and physical component score (RAND 36-Item Health Survey) [2] | QoL (SF-36), between-group differences versus placebo [3]
1 | PTH 1-34: PTH polypeptide of SEQ ID NO: 51 (PTH 1-34) (SVSEIQLMHNLGKHLNSMERVEWLRKKLQDVHNF; human PTH 1-34) | no significant changes | less fatigue and greater physical endurance | – | –
2 | PTH 1-84: PTH polypeptide of SEQ ID NO: 1 (PTH 1-84) (protein, listed as Homo sapiens) SVSEIQLMHNLGKHLNSMERVEWLRKKLQDVHNFVALGAPLAPRDAGSQRPRKKEDNVLVESHEKSLGEADKADVNVLTKAKSQ | – | – | improvement in QoL | not statistically significant
